# According to US5750135A, “Stabilized feed additive and process for the preparation thereof” (Boehringer Ingelheim Vetmedica GmbH, priority 1987, dated 1998):
# Test: Recovery rate of zinc bacitracin in various feeds on storage at ambient temperature
# Assay type: physicochemical
# Conditions: initial 1,000 ppm = 100%
# Text: Stabilization of the active substance zinc bacitracin is achieved with the process according to the invention.
substance,measurement,setting,value
zinc bacitracin [Untreated control],Recovery rate of zinc bacitracin (ZBA) in %,"meal feed 2.16 mineral supplement, 1.5 weeks",94.6%
same,Recovery rate of zinc bacitracin (ZBA) in %,"meal feed 2.16 mineral supplement, 4 weeks",91.2%
same,Recovery rate of zinc bacitracin (ZBA) in %,"meal feed 2.16 mineral supplement, 6 weeks",68.5%
same,Recovery rate of zinc bacitracin (ZBA) in %,"meal feed 2.16 mineral supplement, 8 weeks",73.7%
same,Recovery rate of zinc bacitracin (ZBA) in %,"meal feed 2.6 complete feed for fattening pigs, 1.5 weeks",116.4%
same,Recovery rate of zinc bacitracin (ZBA) in %,"meal feed 2.6 complete feed for fattening pigs, 4 weeks",107.6%
same,Recovery rate of zinc bacitracin (ZBA) in %,"meal feed 2.6 complete feed for fattening pigs, 6 weeks",93.1%
same,Recovery rate of zinc bacitracin (ZBA) in %,"meal feed 2.6 complete feed for fattening pigs, 8 weeks",83.3%
same,Recovery rate of zinc bacitracin (ZBA) in %,"meal feed 7.4 complete feed for fattening chicks, 1.5 weeks",89.8%
same,Recovery rate of zinc bacitracin (ZBA) in %,"meal feed 7.4 complete feed for fattening chicks, 4 weeks",82.9%
same,Recovery rate of zinc bacitracin (ZBA) in %,"meal feed 7.4 complete feed for fattening chicks, 6 weeks",66.2%
same,Recovery rate of zinc bacitracin (ZBA) in %,"meal feed 7.4 complete feed for fattening chicks, 8 weeks",51.9%
same,Recovery rate of zinc bacitracin (ZBA) in %,"meal feed 7.7 complete feed for laying hens, 1.5 weeks",96.5%
same,Recovery rate of zinc bacitracin (ZBA) in %,"meal feed 7.7 complete feed for laying hens, 4 weeks",98.8%
same,Recovery rate of zinc bacitracin (ZBA) in %,"meal feed 7.7 complete feed for laying hens, 6 weeks",86.4%
same,Recovery rate of zinc bacitracin (ZBA) in %,"meal feed 7.7 complete feed for laying hens, 8 weeks",80.4%
same,Recovery rate of zinc bacitracin (ZBA) in %,"pellet feed 2.6 complete feed for fattening pigs, 1.5 weeks",90.5%
same,Recovery rate of zinc bacitracin (ZBA) in %,"pellet feed 2.6 complete feed for fattening pigs, 4 weeks",75.7%
same,Recovery rate of zinc bacitracin (ZBA) in %,"pellet feed 2.6 complete feed for fattening pigs, 6 weeks",48.8%
same,Recovery rate of zinc bacitracin (ZBA) in %,"pellet feed 2.6 complete feed for fattening pigs, 8 weeks",40.8%
same,Recovery rate of zinc bacitracin (ZBA) in %,"pellet feed 7.4 complete feed for fattening chicks, 1.5 weeks",67.5%
same,Recovery rate of zinc bacitracin (ZBA) in %,"pellet feed 7.4 complete feed for fattening chicks, 4 weeks",40.2%
same,Recovery rate of zinc bacitracin (ZBA) in %,"pellet feed 7.4 complete feed for fattening chicks, 6 weeks",24.9%
same,Recovery rate of zinc bacitracin (ZBA) in %,"pellet feed 7.4 complete feed for fattening chicks, 8 weeks",21.4%
same,Recovery rate of zinc bacitracin (ZBA) in %,"pellet feed 7.7 complete feed for laying hens, 1.5 weeks",81.5%
same,Recovery rate of zinc bacitracin (ZBA) in %,"pellet feed 7.7 complete feed for laying hens, 4 weeks",65.8%
same,Recovery rate of zinc bacitracin (ZBA) in %,"pellet feed 7.7 complete feed for laying hens, 6 weeks",51.1%
same,Recovery rate of zinc bacitracin (ZBA) in %,"pellet feed 7.7 complete feed for laying hens, 8 weeks",42.4%
